Data taken from PubChem BioAssay (NCI).
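Grown in 96-well plates, cells were treated for 48 hours with each compound at five concentrations. Insufficient inhibition: endpoint recorded as highest concentration tested. GI50 is the concentration that inhibits growth by half. The concentration for full growth arrest is given as TGI.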

Columns and labels:
Assay in all cases: growth of human tumour cells (NCI), 48 h
786-0 renal = test system: 786-0 renal
A498 renal = test system: A498 renal
A549 NSCLC = test system: A549 NSCLC
ACHN renal = test system: ACHN renal
BT-549 breast = test system: BT-549 breast
CAKI-1 renal = test system: CAKI-1 renal
CCRF-CEM leukemia = test system: CCRF-CEM leukemia
COLO 205 colon = test system: COLO 205 colon
DU-145 prostate = test system: DU-145 prostate
EKVX NSCLC = test system: EKVX NSCLC
HCC-2998 colon = test system: HCC-2998 colon
HCT-116 colon = test system: HCT-116 colon
HCT-15 colon = test system: HCT-15 colon
HL-60(TB) leukemia = test system: HL-60(TB) leukemia
HOP-62 NSCLC = test system: HOP-62 NSCLC
HS 578T breast = test system: HS 578T breast
HT29 colon = test system: HT29 colon
IGROV1 ovarian = test system: IGROV1 ovarian
K-562 leukemia = test system: K-562 leukemia
KM12 colon = test system: KM12 colon
LOX IMVI melanoma = test system: LOX IMVI melanoma
M14 melanoma = test system: M14 melanoma
MALME-3M melanoma = test system: MALME-3M melanoma
MCF7 breast = test system: MCF7 breast
MDA-MB-231 breast = test system: MDA-MB-231 breast
MDA-MB-435 = test system: MDA-MB-435
MOLT-4 leukemia = test system: MOLT-4 leukemia
NCI-H226 lung = test system: NCI-H226 lung
NCI-H23 lung = test system: NCI-H23 lung
NCI-H460 lung = test system: NCI-H460 lung
NCI-H522 lung = test system: NCI-H522 lung
NCI/ADR-RES ovarian = test system: NCI/ADR-RES ovarian
OVCAR-3 ovarian = test system: OVCAR-3 ovarian
OVCAR-4 ovarian = test system: OVCAR-4 ovarian
OVCAR-5 ovarian = test system: OVCAR-5 ovarian
OVCAR-8 ovarian = test system: OVCAR-8 ovarian
PC-3 prostate = test system: PC-3 prostate
RPMI-8226 leukemia = test system: RPMI-8226 leukemia
RXF 393 renal = test system: RXF 393 renal
SF-268 CNS = test system: SF-268 CNS
SF-295 CNS = test system: SF-295 CNS
SF-539 CNS = test system: SF-539 CNS
SK-MEL-2 melanoma = test system: SK-MEL-2 melanoma
SK-MEL-28 melanoma = test system: SK-MEL-28 melanoma
SK-MEL-5 melanoma = test system: SK-MEL-5 melanoma
SK-OV-3 ovarian = test system: SK-OV-3 ovarian
SN12C renal = test system: SN12C renal
SNB-19 CNS = test system: SNB-19 CNS
SNB-75 CNS = test system: SNB-75 CNS
SR leukemia = test system: SR leukemia
SW-620 colon = test system: SW-620 colon
TK-10 renal = test system: TK-10 renal
U251 CNS = test system: U251 CNS
UACC-257 melanoma = test system: UACC-257 melanoma
UACC-62 melanoma = test system: UACC-62 melanoma
UO-31 renal = test system: UO-31 renal

COC1=CC(=O)c2nc(Cl)ccc2C1=O
GI50 (786-0 renal): 2.02 µM
TGI (786-0 renal): 3.76 µM
GI50 (A498 renal): 12 µM
TGI (A498 renal): 24.3 µM
GI50 (A549 NSCLC): 12.8 µM
TGI (A549 NSCLC): 26.1 µM
GI50 (ACHN renal): 1.67 µM
TGI (ACHN renal): 3.04 µM
GI50 (BT-549 breast): 2.54 µM
TGI (BT-549 breast): 6.42 µM
GI50 (CAKI-1 renal): 1.91 µM
TGI (CAKI-1 renal): 3.74 µM
GI50 (CCRF-CEM leukemia): 2.23 µM
TGI (CCRF-CEM leukemia): > 100 µM
GI50 (COLO 205 colon): 2.31 µM
TGI (COLO 205 colon): 4.98 µM
GI50 (DU-145 prostate): 1.65 µM
TGI (DU-145 prostate): 3.01 µM
GI50 (EKVX NSCLC): 1.78 µM
TGI (EKVX NSCLC): 3.53 µM
GI50 (HCC-2998 colon): 11.4 µM
TGI (HCC-2998 colon): 23.6 µM
GI50 (HCT-116 colon): 1.75 µM
TGI (HCT-116 colon): 3.24 µM
GI50 (HCT-15 colon): 2.03 µM
TGI (HCT-15 colon): 4.55 µM
GI50 (HL-60(TB) leukemia): 2.01 µM
TGI (HL-60(TB) leukemia): 7.61 µM
GI50 (HOP-62 NSCLC): 1.94 µM
TGI (HOP-62 NSCLC): 3.4 µM
GI50 (HS 578T breast): 2.22 µM
TGI (HS 578T breast): 6.18 µM
GI50 (HT29 colon): 2.21 µM
TGI (HT29 colon): 4.74 µM
GI50 (IGROV1 ovarian): 1.86 µM
TGI (IGROV1 ovarian): 3.54 µM
GI50 (K-562 leukemia): 2.98 µM
TGI (K-562 leukemia): > 100 µM
GI50 (KM12 colon): 2.11 µM
TGI (KM12 colon): 4.82 µM
GI50 (LOX IMVI melanoma): 1.38 µM
TGI (LOX IMVI melanoma): 2.8 µM
GI50 (M14 melanoma): 1.92 µM
TGI (M14 melanoma): 3.52 µM
GI50 (MALME-3M melanoma): 1.72 µM
TGI (MALME-3M melanoma): 3.38 µM
GI50 (MCF7 breast): 1.91 µM
TGI (MCF7 breast): 4.19 µM
GI50 (MDA-MB-231 breast): 1.84 µM
TGI (MDA-MB-231 breast): 6.44 µM
GI50 (MDA-MB-435): 1.79 µM
TGI (MDA-MB-435): 3.36 µM
GI50 (MOLT-4 leukemia): 0.807 µM
TGI (MOLT-4 leukemia): 7.77 µM
GI50 (NCI-H226 lung): 7.61 µM
TGI (NCI-H226 lung): 21.5 µM
GI50 (NCI-H23 lung): 1.59 µM
TGI (NCI-H23 lung): 3.33 µM
GI50 (NCI-H460 lung): 14 µM
TGI (NCI-H460 lung): 29.3 µM
GI50 (NCI-H522 lung): 1.7 µM
TGI (NCI-H522 lung): 3.57 µM
GI50 (NCI/ADR-RES ovarian): 1.98 µM
TGI (NCI/ADR-RES ovarian): 4.24 µM
GI50 (OVCAR-3 ovarian): 1.79 µM
TGI (OVCAR-3 ovarian): 3.19 µM
GI50 (OVCAR-4 ovarian): 1.5 µM
TGI (OVCAR-4 ovarian): 2.83 µM
GI50 (OVCAR-5 ovarian): 2.06 µM
TGI (OVCAR-5 ovarian): 4.88 µM
GI50 (OVCAR-8 ovarian): 1.68 µM
TGI (OVCAR-8 ovarian): 3.11 µM
GI50 (PC-3 prostate): 3.73 µM
TGI (PC-3 prostate): 16.5 µM
GI50 (RPMI-8226 leukemia): 2.59 µM
TGI (RPMI-8226 leukemia): 7.9 µM
GI50 (RXF 393 renal): 1.58 µM
TGI (RXF 393 renal): 2.97 µM
GI50 (SF-268 CNS): 1.65 µM
TGI (SF-268 CNS): 3.19 µM
GI50 (SF-295 CNS): 1.69 µM
TGI (SF-295 CNS): 3.51 µM
GI50 (SF-539 CNS): 1.62 µM
TGI (SF-539 CNS): 3.03 µM
GI50 (SK-MEL-2 melanoma): 2.07 µM
TGI (SK-MEL-2 melanoma): 3.98 µM
GI50 (SK-MEL-28 melanoma): 1.88 µM
TGI (SK-MEL-28 melanoma): 3.47 µM
GI50 (SK-MEL-5 melanoma): 1.66 µM
TGI (SK-MEL-5 melanoma): 3.02 µM
GI50 (SK-OV-3 ovarian): 11 µM
TGI (SK-OV-3 ovarian): 23.3 µM
GI50 (SN12C renal): 1.72 µM
TGI (SN12C renal): 3.19 µM
GI50 (SNB-19 CNS): 13.7 µM
TGI (SNB-19 CNS): 28 µM
GI50 (SNB-75 CNS): 1.35 µM
TGI (SNB-75 CNS): 2.73 µM
GI50 (SR leukemia): 3.17 µM
TGI (SR leukemia): > 100 µM
GI50 (SW-620 colon): 1.79 µM
TGI (SW-620 colon): 3.3 µM
GI50 (TK-10 renal): 2.09 µM
TGI (TK-10 renal): 4.23 µM
GI50 (U251 CNS): 1.66 µM
TGI (U251 CNS): 3.03 µM
GI50 (UACC-257 melanoma): 1.68 µM
TGI (UACC-257 melanoma): 3.12 µM
GI50 (UACC-62 melanoma): 1.77 µM
TGI (UACC-62 melanoma): 3.45 µM
GI50 (UO-31 renal): 1.63 µM
TGI (UO-31 renal): 3.12 µM
